{"source": "ChEMBL document CHEMBL1201862", "about": "“PubChem BioAssay data set” (2004)", "key": {"[1]": {"biological_target": "NAD-dependent protein deacylase sirtuin-5, mitochondrial (Homo sapiens, UniProt Q9NXA8)", "sequence (Q9NXA8 whole entry)": "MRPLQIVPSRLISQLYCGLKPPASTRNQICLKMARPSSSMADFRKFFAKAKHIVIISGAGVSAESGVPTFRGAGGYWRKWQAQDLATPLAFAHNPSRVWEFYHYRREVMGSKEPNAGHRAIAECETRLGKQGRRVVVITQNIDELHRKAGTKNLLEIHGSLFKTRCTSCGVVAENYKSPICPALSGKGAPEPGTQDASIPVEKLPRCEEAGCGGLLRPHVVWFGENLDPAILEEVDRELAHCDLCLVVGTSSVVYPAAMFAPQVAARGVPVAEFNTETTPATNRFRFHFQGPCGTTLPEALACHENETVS", "assay": "SIRT5 deacylase inhibitors, dose response, biochemical, fluorescence imaging, cherry-pick, set 6 (AID 720597)"}, "[2]": {"biological_target": "Mitogen-activated protein kinase 10 (Homo sapiens, UniProt P53779)", "sequence (P53779 whole entry)": "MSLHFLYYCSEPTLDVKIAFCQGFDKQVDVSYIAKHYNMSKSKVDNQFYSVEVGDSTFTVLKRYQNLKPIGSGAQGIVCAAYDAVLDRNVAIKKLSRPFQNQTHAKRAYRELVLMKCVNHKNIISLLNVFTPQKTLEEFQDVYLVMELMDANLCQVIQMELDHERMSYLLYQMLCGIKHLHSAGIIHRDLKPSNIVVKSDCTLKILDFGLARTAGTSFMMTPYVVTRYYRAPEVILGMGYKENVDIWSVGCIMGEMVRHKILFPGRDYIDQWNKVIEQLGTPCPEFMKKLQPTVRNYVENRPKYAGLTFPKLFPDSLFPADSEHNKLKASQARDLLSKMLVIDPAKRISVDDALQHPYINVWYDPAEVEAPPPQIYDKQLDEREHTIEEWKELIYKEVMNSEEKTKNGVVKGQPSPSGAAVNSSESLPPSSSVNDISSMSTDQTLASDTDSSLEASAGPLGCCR", "assay": "Dose response biochemical screening assay for inhibitors of c-Jun N-Terminal Kinase 3 (JNK3). [Related pubchem assays: 746 ]"}, "[3]": {"assay": "Luminescence Cell-Based Dose Response HTS to Identify Activators of Luciferase Translation or Activity in H4 […] Cells. [Related pubchem assays: 1829 (Project Summary), 1814 (Primary HTS)]", "assay_type": "functional"}, "[4]": {"assay": "Luminescence Cell-Based Dose Confirmation HTS to Identify Activators of 5'UTR Stem-Loop Driven Alpha-Synuclein mRNA Translation in H4 Neuroglioblastoma Cells. [Related pubchem assays: 1829 (Project Summary), 1814 (Primary HTS)]", "assay_type": "functional"}, "[5]": {"system": "H4", "assay": "Luminescence Cell-Based Dose Response HTS to Identify Activators of 5'UTR Stem-Loop Driven Prion Protein mRNA Translation in H4 Neuroglioblastoma Cells. [Related pubchem assays: 1829 (Project Summary), 1814 (Primary HTS)]", "assay_type": "functional", "settings": "Homo sapiens"}, "[6]": {"assay": "growth inhibition of intracellular T. cruzi, dose response, cell-based, plate reader, dry powder samples (AID 651845)", "assay_type": "functional"}, "[7]": {"assay": "Inhibition of Plasmodium falciparum NF54 Measured in Cell-Based System Using Plate Reader - 2138-11_Inhibitor_Dose_CherryPick_Activity.", "assay_type": "functional"}, "[8]": {"assay": "T. b. rhodesiense proliferation inhibition, dose response, STIB900 strain, plate reader, cherry pick (AID 651893)", "assay_type": "functional, cell-based", "settings": "Trypanosoma brucei"}, "[9]": {"assay": "L. donovani amastigote growth inhibition, dose response, axenic amastigotes, plate reader, cherry pick (AID 651891)", "assay_type": "functional, cell-based", "settings": "Leishmania donovani"}, "[10]": {"assay": "T. cruzi growth inhibition in host cells, dose response, cell-based, plate reader, dry powder, set 2 (AID 652275)", "assay_type": "functional"}, "[11]": {"assay": "Inhibition of T. cruzi Tulahuen strain amastigotes in L-6 muscle cells Measured in Cell-Based and Microorganism Combination System Using Plate Reader - 2138-03_Inhibitor_Dose_CherryPick_Activity.", "assay_type": "functional", "settings": "Rattus norvegicus, L6"}, "[12]": {"assay": "T. cruzi intracellular amastigote growth inhibition, dose response, imaging, CA-I/72 strain, bovine embryo skeletal muscle, dry powder (AID 651885)", "assay_type": "functional, cell-based"}, "[13]": {"assay": "intracellular Trypanosoma cruzi inhibitors in host cells – cell-based, plate reader, cherry-pick samples, set 3, dose response (AID 651818);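 note: compounds incubated with infected cells for about four days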", "assay_type": "functional"}, "[14]": {"assay": "cytotoxicity in L-6 rat myocytes, dose response, cytotoxicity control, cell-based, plate reader, cherry-pick (AID 651896)", "assay_type": "functional"}, "[15]": {"system": "BJ", "assay": "cytotoxicity toward BJ-TERT-LT-ST fibroblasts, dose response, cell-based, RAS-independent, luminescence (AID 1935);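 note: BJ fibroblasts immortalized with TERT plus LT and ST oncogenes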", "assay_type": "functional", "settings": "Homo sapiens"}, "[16]": {"system": "BJ", "assay": "cytotoxicity toward Ras-transformed BJeLR fibroblasts, dose response, cell-based, alamar blue fluorescence, cherrypicked samples (AID 2631)", "assay_type": "functional", "settings": "Homo sapiens"}, "[17]": {"system": "BJ", "assay": "cytotoxicity toward BJ-TERT fibroblasts, dose response, cell-based, RAS-independent, luminescence (AID 1933)", "assay_type": "functional", "settings": "Homo sapiens"}, "[18]": {"system": "Vero", "assay": "host cell cytotoxicity of antiviral hits, dose response, cytotoxicity control for West Nile virus antiviral project, secondary assay (AID 1650)", "assay_type": "functional", "settings": "Chlorocebus sabaeus"}, "[19]": {"assay": "cytotoxicity toward DRD oncogenic fibroblasts, dose response, cell-based, non-viral oncogenic, luminescence (AID 1934)", "assay_type": "functional", "settings": "Homo sapiens"}, "[20]": {"system": "Vero", "assay": "West Nile virus antiviral activity, cell-based, CPE readout (AID 1621)", "assay_type": "functional", "settings": "Chlorocebus sabaeus"}, "[21]": {"system": "Vero", "assay": "cells", "assay_type": "functional", "settings": "Chlorocebus sabaeus"}, "[22]": {"system": "Vero", "assay": "cells", "assay_type": "functional, cell-based", "settings": "Chlorocebus sabaeus"}, "[23]": {"system": "BJ", "assay": "cells", "assay_type": "functional, cell-based", "settings": "Homo sapiens"}, "[24]": {"assay": "Luminescence Cell-Based Dose Response to Identify Activators of Luciferase Translation or Activity in H4-C Neuroglioblastoma Cells. [Related pubchem assays: 1829 (Project Summary), 1814 (Primary HTS)]", "assay_type": "functional"}, "[25]": {"assay": "Luminescence Cell-Based Dose Response to Identify Activators of 5'UTR Stem-Loop Driven Prion Protein mRNA Translation in H4-C Neuroglioblastoma Cells. [Related pubchem assays: 1829 (Project Summary), 1814 (Primary HTS)]", "assay_type": "functional"}, "[26]": {"assay": "Luminescence Cell-Based Dose Confirmation to Identify Activators of 5'UTR Stem-Loop Driven Alpha-Synuclein mRNA Translation in H4 Neuroglioblastoma Cells. [Related pubchem assays: 1829 (Project Summary), 1814 (Primary HTS)]", "assay_type": "functional"}, "[27]": {"biological_target": "Muscarinic acetylcholine receptor M1 (Rattus norvegicus, UniProt P08482)", "sequence (P08482 whole entry)": "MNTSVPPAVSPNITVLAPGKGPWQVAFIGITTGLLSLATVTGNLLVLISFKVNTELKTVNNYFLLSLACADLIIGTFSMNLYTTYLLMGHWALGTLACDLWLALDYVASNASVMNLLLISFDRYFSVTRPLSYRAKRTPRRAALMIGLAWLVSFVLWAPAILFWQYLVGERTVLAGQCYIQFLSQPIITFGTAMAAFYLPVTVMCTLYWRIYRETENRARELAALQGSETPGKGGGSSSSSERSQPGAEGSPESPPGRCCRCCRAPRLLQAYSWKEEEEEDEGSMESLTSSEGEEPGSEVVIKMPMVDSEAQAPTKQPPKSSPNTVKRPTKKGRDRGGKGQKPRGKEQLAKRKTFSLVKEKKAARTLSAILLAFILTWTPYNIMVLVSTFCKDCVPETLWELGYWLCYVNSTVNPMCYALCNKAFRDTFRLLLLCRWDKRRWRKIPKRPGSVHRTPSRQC", "assay": "rat M1 positive allosteric modulator potency, dose response, cell-based, calcium mobilization, CHO-K1, ACh EC20 (AID 2425)", "assay_type": "functional"}, "[28]": {"assay": "growth suppression of PTEN-null colon cells, dose response, cell-based, HCT116 PTEN knockout (AID 1047);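 note: HCT116 colon tumor cells with PTEN knocked out; cells exposed to compound for 60 hours before readout; potency for loss of cell viability measured by luminescence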", "assay_type": "functional"}, "[29]": {"assay": "growth suppression of beta-catenin-knockout colon cells, dose response, cell-based, HCT116, human colon tumor (AID 1045);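 note: HCT116 colon tumor cells with beta catenin knocked out; cells exposed to compound for 60 hours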", "assay_type": "functional"}, "[30]": {"biological_target": "Potassium channel subfamily K member 3 (Rattus norvegicus, UniProt O54912)", "sequence (O54912 whole entry, the tested form may be a part)": "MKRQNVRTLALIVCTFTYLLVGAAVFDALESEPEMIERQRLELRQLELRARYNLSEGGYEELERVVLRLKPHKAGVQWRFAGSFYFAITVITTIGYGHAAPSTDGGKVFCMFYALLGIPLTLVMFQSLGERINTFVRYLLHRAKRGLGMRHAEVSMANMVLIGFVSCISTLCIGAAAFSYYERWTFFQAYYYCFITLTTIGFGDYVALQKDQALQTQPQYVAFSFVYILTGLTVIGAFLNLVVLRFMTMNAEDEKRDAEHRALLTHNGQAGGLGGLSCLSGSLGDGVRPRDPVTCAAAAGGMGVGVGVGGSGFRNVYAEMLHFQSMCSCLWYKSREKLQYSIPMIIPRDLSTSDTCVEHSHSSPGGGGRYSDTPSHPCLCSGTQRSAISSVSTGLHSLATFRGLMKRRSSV", "assay": "SAR analysis for the identification of selective inhibitors of the two-pore domain potassium channel TASK1(KCNK3):Automated Electrophysiology.", "assay_type": "functional"}, "[31]": {"biological_target": "T1, Potassium channel subfamily K member 9 (Homo sapiens, UniProt Q9NPC2)", "T1 sequence (Q9NPC2 whole entry)": "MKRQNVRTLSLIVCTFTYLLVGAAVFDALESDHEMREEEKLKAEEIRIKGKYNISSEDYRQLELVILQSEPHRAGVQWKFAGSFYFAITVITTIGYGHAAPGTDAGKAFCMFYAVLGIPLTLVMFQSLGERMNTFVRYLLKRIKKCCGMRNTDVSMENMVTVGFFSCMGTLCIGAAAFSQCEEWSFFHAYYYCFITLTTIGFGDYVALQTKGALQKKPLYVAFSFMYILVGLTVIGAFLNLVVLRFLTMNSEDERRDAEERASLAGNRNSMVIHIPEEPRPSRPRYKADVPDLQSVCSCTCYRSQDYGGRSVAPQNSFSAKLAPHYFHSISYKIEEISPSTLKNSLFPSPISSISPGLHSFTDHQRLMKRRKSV", "assay": "KCNK9 (TASK3) current inhibition by patch clamp, SAR follow-up, selectivity assay for TASK1 (KCNK3) inhibitor project, cell-based, automated electrophysiology (AID 652210)", "assay_type": "functional"}, "[32]": {"biological_target": "T1, Potassium channel subfamily K member 9", "assay": "TASK3 (KCNK9) channel inhibitors, thallium flux, SAR follow-up, selectivity assay for TASK1 inhibitor project, cell-based, FluxOR thallium flux, concentration-response (AID 652211)", "assay_type": "functional"}, "[33]": {"biological_target": "Potassium channel subfamily K member 3 (Homo sapiens, UniProt O14649)", "sequence (O14649 whole entry)": "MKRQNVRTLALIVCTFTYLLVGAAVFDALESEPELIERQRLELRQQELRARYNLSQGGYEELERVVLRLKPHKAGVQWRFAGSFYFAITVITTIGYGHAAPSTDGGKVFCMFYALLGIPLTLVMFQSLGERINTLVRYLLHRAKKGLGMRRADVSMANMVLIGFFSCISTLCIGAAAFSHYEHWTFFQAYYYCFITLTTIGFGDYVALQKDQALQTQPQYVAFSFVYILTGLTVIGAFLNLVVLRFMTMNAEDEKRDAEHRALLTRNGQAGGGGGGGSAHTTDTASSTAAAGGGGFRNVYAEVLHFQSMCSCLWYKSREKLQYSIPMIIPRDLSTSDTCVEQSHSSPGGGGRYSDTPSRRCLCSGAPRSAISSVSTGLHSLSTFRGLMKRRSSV", "assay": "TASK1 (KCNK3) potassium channel inhibitors, SAR follow-up, CHO cells, FluxOR thallium flux (AID 652212)", "assay_type": "functional"}}, "note": "Activity calls are given as the source filed them.", "data": [{"smiles": "CCCNC(=O)Nc1ccc2c(c1)C(=O)N(C)[C@H]1CC[C@H](CC(=O)NCC3CCCCC3)O[C@@H]1CO2", "values": [{"measurement": "AC50", "setting": "[1]", "result": "> 30 µM (inactive)"}]}, {"smiles": "CC1=CC(=C2C(=O)c3ccccc3C2=O)C=C(C)N1C", "values": [{"measurement": "IC50", "setting": "[2]", "result": "42.1 µM (not active)"}, {"measurement": "EC50", "setting": "[3]", "result": "29.3 µM (active)"}, {"measurement": "EC50", "setting": "[4]", "result": "53.3 µM (active)"}, {"measurement": "EC50", "setting": "[5]", "result": "57.2 µM (active)"}]}, {"smiles": "C[C@@H]1CN([C@H](C)CO)C(=O)c2cccc(NC(=O)c3ccncc3)c2O[C@H]1CN(C)Cc1ccccc1", "values": [{"measurement": "AC50", "setting": "[6]", "result": "64 nM (active)"}, {"measurement": "IC50", "setting": "[7]", "result": "5.64 µM (inactive)"}, {"measurement": "IC50", "setting": "[8]", "result": "6.14 µM (inactive)"}, {"measurement": "IC50", "setting": "[9]", "result": "> 100 µM (inactive)"}, {"measurement": "AC50", "setting": "[10]", "result": "5.61 nM (active)"}, {"measurement": "IC50", "setting": "[11]", "result": "5.64 µM (inactive)"}, {"measurement": "IC50", "setting": "[12]", "result": "14.4 nM (active)"}, {"measurement": "AC50", "setting": "[13]", "result": "80 nM (active)"}, {"measurement": "IC50", "setting": "[14]", "result": "> 100 µM (inactive)"}]}, {"smiles": "Cc1ccc(NC(=O)[C@H](Cc2c[nH]c3ccccc23)NC(=O)[C@@H]2Cc3ccccc3CN2)c(C)c1", "values": [{"measurement": "EC50", "setting": "[15]", "result": "> 150 µM (not active)"}, {"measurement": "EC50", "setting": "[16]", "result": "> 133 µM (inactive)"}, {"measurement": "EC50", "setting": "[17]", "result": "21.1 µM (active)"}, {"measurement": "CC50", "setting": "[18]", "result": "12.5 µM (active)"}, {"measurement": "EC50", "setting": "[19]", "result": "112 µM (inconclusive)"}, {"measurement": "IC50", "setting": "[20]", "result": "43.3 µM (active)"}, {"measurement": "CC50", "setting": "[21]", "result": "15.9 µM (active)"}, {"measurement": "IC50", "setting": "[22]", "result": "1.91 µM (active)"}, {"measurement": "EC50", "setting": "[23]", "result": "20.7 µM (active)"}]}, {"smiles": "Cc1nc2c(-c3ccccc3)cnn2c(N2CCOCC2)c1C", "values": [{"measurement": "EC50", "setting": "[24]", "result": "246 nM (active)"}, {"measurement": "EC50", "setting": "[25]", "result": "246 nM (active)"}, {"measurement": "EC50", "setting": "[26]", "result": "2.38 µM (active)"}, {"measurement": "EC50", "setting": "[3]", "result": "< 0.1 µM (active)"}, {"measurement": "EC50", "setting": "[5]", "result": "0.108 µM (active)"}]}, {"smiles": "Cc1cc(NC(=O)CS(=O)(=O)c2cn(Cc3ccccc3Cl)c3ccccc23)no1", "values": [{"measurement": "EC50", "setting": "[27]", "result": "9.13 µM (active)"}, {"measurement": "EC50", "setting": "[28]", "result": "41.3 µM (active)"}, {"measurement": "EC50", "setting": "[29]", "result": "72.8 µM (active)"}]}, {"smiles": "CCOc1ccccc1NC(=O)c1cccc(NC(=O)CC2CCCC2)c1", "values": [{"measurement": "IC50", "setting": "[30]", "result": "320 nM (active)"}, {"measurement": "IC50", "setting": "[31]", "result": "3.9 µM (active)"}, {"measurement": "IC50", "setting": "[32]", "result": "4.17 µM (active)"}, {"measurement": "IC50", "setting": "[33]", "result": "161 nM (active)"}]}]}
